Calls of active or inactive are those of the source. No rule for the calls is given here.
Test system: CCRIS mutagenicity, Ames/micronucleus/aberration tests
Test: CCRIS mutagenicity studies
Details: Test System: AMES SALMONELLA TYPHIMURIUM
Excerpt: The CCRIS database contains chemical records with carcinogenicity, mutagenicity, tumor promotion, and tumor inhibition test results. It was developed by the National Cancer Institute (NCI). Data are derived from studies cited in primary journals, current awareness tools, NCI reports, and other sources. Test results have been reviewed by experts in carcinogenesis and mutagenesis.
CCRIS provides historical information from the years 1985 - 2011. It is no longer updated.
This is an archive assay for CCRIS mutagenicity studies.

CN(C)N=O
mutagenic call (Strain/Indicator: TA100, Metabolic Activation: RAT, LIVER, S-9, AROCLOR 1254, Method: STANDARD PLATE): inactive; negative
mutagenic call (Strain/Indicator: TA100, Metabolic Activation: RAT, LIVER, S-9, CYCLOHEXANOL, Method: PREINCUBATION): active; positive
mutagenic call (Strain/Indicator: TA100, Metabolic Activation: RAT, LIVER, S-9, ETHANOL, Method: PREINCUBATION): active; positive
mutagenic call (Strain/Indicator: TA100, Metabolic Activation: RAT, LIVER, S-9, KC500 OR PHENOBARBITAL, Method: LIQUID SUSPENSION): active; positive
mutagenic call (Strain/Indicator: TA100, Metabolic Activation: RAT, LIVER, S-9, N-BENZYLIMIDAZOLE, Method: PREINCUBATION): active; positive
mutagenic call (Strain/Indicator: TA100, Metabolic Activation: RAT, LIVER, S-9, PHENOBARBITAL, Method: PREINCUBATION): active; positive
mutagenic call (Strain/Indicator: TA100, Metabolic Activation: RAT, LUNG, S-9, Method: STANDARD PLATE): inactive; negative
mutagenic call (Strain/Indicator: TA100, Metabolic Activation: RAT, NASAL, S-9, Method: STANDARD PLATE): inactive; negative
mutagenic call (Strain/Indicator: TA100, Metabolic Activation: S-9, Method: PREINCUBATION): inactive; negative
mutagenic call (Strain/Indicator: TA100, Metabolic Activation: TOBACCO CELLS, Method: PREINCUBATION): inactive; negative
mutagenic call (Strain/Indicator: TA104, Metabolic Activation: HAMSTER, LIVER, S-9, AROCLOR 1254, NADPH GENERATING SYSTEM, CYTOSOL, Method: PREINCUBATION): active; positive
mutagenic call (Strain/Indicator: TA104, Metabolic Activation: HAMSTER, LIVER, S-9, AROCLOR 1254, Method: PREINCUBATION): active; positive
mutagenic call (Strain/Indicator: TA104, Metabolic Activation: HAMSTER, LIVER, S-9, Method: PREINCUBATION): active; positive
mutagenic call (Strain/Indicator: TA104, Metabolic Activation: MICROSOMES, CYTOSOL, Method: PREINCUBATION): active; positive
mutagenic call (Strain/Indicator: TA104, Metabolic Activation: RAT, LIVER, S-9, AROCLOR 1254, Method: PREINCUBATION): active; positive
mutagenic call (Strain/Indicator: TA104, Metabolic Activation: RAT, LIVER, S-9, Method: PREINCUBATION): active; positive
mutagenic call (Strain/Indicator: TA1530, Metabolic Activation: RAT, LIVER, S-9, AROCLOR 1254, Method: PREINCUBATION): active; positive
mutagenic call (Strain/Indicator: TA1530, Metabolic Activation: RAT, LIVER, S-9, Method: STANDARD PLATE): active; positive
mutagenic call (Strain/Indicator: TA1535 (PSK1002), Metabolic Activation: RAT, LIVER, S-9, ISONIAZID, Method: PREINCUBATION): active; positive
mutagenic call (Strain/Indicator: TA1535, Metabolic Activation: NONE, Method: PREINCUBATION): inactive; negative
mutagenic call (Strain/Indicator: TA1535, Metabolic Activation: RAT LIVER S-9, ETHANOL (4%), Method: PREINCUBATION): inactive; negative
mutagenic call (Strain/Indicator: TA1535, Metabolic Activation: RAT, LIVER, HEPATOCYTES, Method: PREINCUBATION): active; positive
mutagenic call (Strain/Indicator: TA1535, Metabolic Activation: RAT, LIVER, MICROSOMES, KANECHLOR 500, Method: PREINCUBATION): active; positive
mutagenic call (Strain/Indicator: TA1535, Metabolic Activation: RAT, LIVER, S-9, AROCLOR 1254, (PREGNANT MARE SERUM), Method: PREINCUBATION): active; positive
mutagenic call (Strain/Indicator: TA1535, Metabolic Activation: RAT, LIVER, S-9, AROCLOR 1254, Method: PREINCUBATION): active; positive
mutagenic call (Strain/Indicator: TA1535, Metabolic Activation: RAT, LIVER, S-9, AROCLOR, Method: PREINCUBATION): active; positive
mutagenic call (Strain/Indicator: TA1535, Metabolic Activation: RAT, LIVER, S-9, KC500 OR PHENOBARBITAL, Method: LIQUID SUSPENSION): active; positive
mutagenic call (Strain/Indicator: TA1535, Metabolic Activation: RAT, LIVER, S-9, SODIUM PHENOBARBITONE, Method: PREINCUBATION): active; positive
mutagenic call (Strain/Indicator: TA1535, Metabolic Activation: RAT, LIVER, S-9, Method: PREINCUBATION): inactive; negative
mutagenic call (Strain/Indicator: TA1535, Metabolic Activation: S-9, Method: PREINCUBATION): active; positive

Source: PubChem BioAssay AID1259407 (Chemical Carcinogenesis Research Information System (CCRIS), 2018)
